# From patent US20090258836A1, “EFFECTIVE DELIVERY OF CROSS-SPECIES A3 ADENOSINE-RECEPTOR ANTAGONISTS TO REDUCE INTRAOCULAR PRESSURE” (The Trustees of The University of Pennsylvania, priority 2006, published 2009)
# Entries after “also recorded” stand apart in the source; their conditions may differ.
# Assays:
# mouse IOP [1] = assay: Mouse IOP after topical application, invasive servo-null micropipette system (SNMS); type: in vivo, Black Swiss mice
# Protocol: (§1) The test animals were black Swiss outbred mice of mixed sex, 7-9 weeks old and 25-30 g in weight, obtained from Taconic Inc. (Germantown, N.Y.), and maintained under 12:12-h light/dark illumination cycle and allowed unrestricted access to food and water. Mice were anesthetized with intraperitoneal ketamine ([…]) supplemented by topical proparacaine HCl 0.5% (Allergan, Bausch & Lomb) for the IOP measurements. IOP was measured invasively (SNMS) and non-invasively by pneumotonometry in separate animals.
# By the SNMS approach (Avila et al., supra, 2001), the exploring micropipette, of […] outer diameter, was filled with a highly conducting solution and advanced across the cornea into the anterior chamber. A refined technique by Wang et al., Invest. Opthalmol. Vis. Sci. (serial online) (Aug. 31, 2006) available at www.iovs.org/egi/letters/46/9/3274#422, enhanced stability and reduce the background noise of the records, permitting fabrication of micropipettes whose resistance is 0.1-0.3 MΩ, rather than the 0.25-0.4 MΩ used initially. The filling solution was reduced from 3M KCl to 2M NaCl, rather than 3 M KCl. The resistance of the filled micropipette was balanced in a bridge circuit, and the tip was then advanced across the cornea. Upon entering the anterior chamber of the eye, the IOP forces the much lower-conducting aqueous humor into the micropipette tip, displacing the original filling solution. The micropipette resistance was thereby increased, unbalancing the bridge circuit and triggering a bellows to provide a counter-pressure, restoring the position of the filling solution and returning the resistance to its initial value. Thus, the value of the counter-pressure equals the IOP. As in the past (Avila et al., supra, 2001), the stability of the records permitted continuous measurements for tens of minutes during the course of drug applications.
# (§2) Ketamine HCl was purchased from Phoenix Pharmaceutical Inc. (St. Joseph, Mo.). Other drugs were obtained from Sigma Chemical (St. Louis, Mo.). Drugs were applied topically with an Eppendorf pipette. […] The final droplet solution contained the drugs at the stated concentrations together with <2% DMSO and 0.0005% benzalkonium chloride at an osmolality of 295-300 mOsm. DMSO was omitted, altogether, from droplets containing the hydrophilic compounds adenosine, carbachol and carboxyfluorescein.
# (§3) Effects on invasively-measured IOP were measured 10 min after topical application because after this time, the continued presence of the micropipette can be associated with a downward drift of the IOP, even under control conditions. In contrast, smaller droplets ([…]) were applied to the eye more frequently (three times instead of once) with the non-invasive technique, in order to forestall drying of the eye associated with the airflow from the pneumotonometer. With the non-invasive protocol, the IOP was stable for 30 min under control conditions.
# In Table 1, an endpoint of 10 minutes was used for the invasive measurements in light of the above-discussed downward drift of the IOP, even under control conditions. Also the need for smaller, more frequent droplets are discussed above with regard to the non-invasive technique using the pneumotonometer. As above, with the non-invasive protocol, the IOP was stable for 30 minutes under control conditions.
# [2] = system: HCE (human ciliary epithelial) cell line, NPE cells; assay: Cell volume in isosmotic solution (isosmotic shrinkage), Coulter Counter; type: cell-based
# Protocol: Cell Culture The HCE (human ciliary epithelial) cell line (Carre et al., supra, 1997) is an immortalized NPE cell line obtained from primary cultures of adult human epithelium. […] Eye Res. 57:3057-3063 (1993); Yantorno et al., Exp. Eye Res. 49:423-437 (1989)). […] Cells were passaged every 6-7 days and were studied 8-13 days after passage, after reaching confluence. An immortalized PE-cell line from a primary culture of bovine pigmented ciliary epithelium were also grown under matching conditions. Measurement of Cell Volume in Isosmotic Solution: The volume of PE and NPE cells was measured, since the movement of fluid underlies a change in PE and NPE cell volume, respectively. This is also thought to be the same as the movement of fluid which underlines the secretion of aqueous humor (FIG. 1). […] Parallel aliquots of cells were studied on the same day. One aliquot usually served as a control, and the others were exposed to different experimental conditions at the time of suspension. The same amount of solvent vehicle (dimethylformamide, DMSO or ethanol) was always added to the control and experimental aliquots. […] Cell volumes of isosmotic suspensions were measured with a Coulter Counter (model ZBI-Channelyzer II), using a 100 μm aperture (Civan et al., supra, 1994). As previously described (Wax et al., supra, 1993), the cell volume (vC) of the suspension was taken as the peak of the distribution function. Cell shrinkage was fit as a function of time (t) to a monoexpenential function: […]^0^)/τ] {1) where v∞ is the steady-state cell volume, v0 is the cell volume at the first point (t0) of the time course to be fit, and τ is the time constant of the shrinkage. For purposes of data reduction, the data were normalized to the first time point, taken to be 100% isotonic volume. Fits were obtained by nonlinear least-squares regression analysis, permitting both v∞ and τ to be variables. […] Med. Chem. 37:636-646 (1994; Jacobson et al., supra, 1995; Jacobson et al., FEBS Lett. 336:57-60 (1993)).
# mouse IOP [3] = assay: Mouse IOP after topical application, non-invasive pneumotonometry; type: in vivo, Black Swiss mice; details: for Δ(IOP) Pneumotonometer: topical droplets 200 nM (1% DMSO), 30 min
# Protocol: as §1
# By comparison, IOP was measured non-invasively by pneumotonometry (OBT) (Avila et al., supra, 2005). As previously described, the commercially available tip of the ocular blood tomography (OBT) pneumotonometer (Blood Flow Analyzer [BFA] probe tip; Paradigm Medical Industries Inc.) was fit to a custom-built mount. Air flow from a constant pressure source was passed through the mount to reach a diaphragm forming the end of the BFA tip. The flow of air displaces the diaphragm outward, permitting escape of the air through holes in the wall of the probe tip into the atmosphere. Pressure was monitored with a transducer connected through a T-connection to the base of the BFA tip. The probe assembly was advanced to the cornea with a three-axis micromanipulator. The probe tip was advanced sufficiently to make contact with the tear film, as was indicated by a shift in the baseline output reading. In a refined method, the tip was withdrawn until the […] was visually displaced from the tear film. The output was then adjusted to zero before advancing the tip again. Contact with the cornea depresses the diaphragm of the BFA tip, occluding access of the air flow to the escape holes and raising the pressure at the base of the tip.
# This approach was simplified to expedite identification of the endpoint, and the probe was subsequently advanced in about 10 standardized steps of approximately […] at intervals of about 10 seconds to identify the inflection region (Wang et al., supra, 2006). […] The pneumotonometric estimates of IOP were previously found to agree with manometric measurements in cannulated preparations and with estimates obtained by the servo-null technique (Avila et al., supra, 2005). Having established the baseline value of IOP, the position along the axis of advance of the micromanipulator was noted, and the probe was retracted from contact with the cornea. Subsequent measurements of IOP at later time points were obtained by advancing the probe tip to the same position, with the placement of the mouse maintained stereotactically. The measurements were conducted at 10-min intervals to avoid potential artifacts associated with prolonged pressure on the cornea.
# as §2, §3
# In Table 1, an endpoint of 10 minutes was used for the invasive measurements in light of the above-discussed downward drift of the IOP, even under control conditions. […]
# mouse IOP [4] = assay: Mouse IOP monitored with SNMS, protocols of Yang et al. 2005; type: in vivo
# Protocol: Pharmacol. 65:1675-1684 (2003)), is effective both in blocking adenosine-triggered shrinkage of cultured human NPE cells and in lowering IOP of mice (Yang et al., supra, 2005). MRS-1292 was tested on the mouse for two reasons. Transgenic mice provide a convenient opportunity for studying the molecular physiology and pharmacology in the living animal ([…] al., supra, 2003). Second, measurement of IOP permitted us to assess the effects of MRS-1292 on the target parameter. […] Therefore, to directly assess the effect of MRS-1292 in vivo in the mouse, IOP was monitored before and after drug application. IOP was monitored with the Servo-Null-Micropipette System (SNMS). The test protocols are described in detail by Yang et al. supra, 2005, herein incorporated by reference. […] In comparison, addition of the same volume of saline at the same osmolality produced no significant change in IOP (-0.3±1.2 mmHg, n=6, p>0.8) 14 min later. […] To estimate an approximate range, “penetrance” was defined by Yang et al. as the ratio of the published Ki value at receptors in vitro to the minimally effective droplet concentration, for a number of adenosine agonists and antagonists. Thus, penetrance ranges from 1:100 to 1:1000 for purinergic drugs that have been tested in the mouse, and it is not very different from the drug penetrance of 1:100 for agents applied topically to rabbits and primates. This rule of thumb also applies to acylguanidine blockers and bumetanide, whose topical effects have also been studied in the mouse eye. Thus, the approximately 1:1000 penetrance that Yang et al. reported in the 2003 citation for MRS 1292 in the present experiments is consistent with past studies
# cultured human NPE cells = details: cited from earlier work
# human A2A receptors = human A2A receptors (Homo sapiens, UniProt P29274); details: literature; read-out: Ki for the binding to human A2A receptors; cited from earlier work
# Chain of human A2A receptors (P29274 whole entry): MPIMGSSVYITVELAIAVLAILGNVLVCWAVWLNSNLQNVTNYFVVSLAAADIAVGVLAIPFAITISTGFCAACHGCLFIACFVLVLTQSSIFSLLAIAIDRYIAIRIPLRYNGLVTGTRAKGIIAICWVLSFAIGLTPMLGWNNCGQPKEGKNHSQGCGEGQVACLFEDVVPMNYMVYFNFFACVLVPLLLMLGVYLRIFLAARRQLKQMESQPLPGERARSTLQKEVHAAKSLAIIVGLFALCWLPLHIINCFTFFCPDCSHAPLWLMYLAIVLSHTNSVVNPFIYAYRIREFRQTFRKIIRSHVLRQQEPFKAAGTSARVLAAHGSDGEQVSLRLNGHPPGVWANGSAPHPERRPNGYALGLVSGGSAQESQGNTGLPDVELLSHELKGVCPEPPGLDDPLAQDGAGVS
# pupil size = assay: Pupil diameter after topical carbachol with or without corneal impalement; type: in vivo, mouse
# Protocol: as §1
# To measure pupil diameter, the pupil and an adjacent ruler having 1-mm graticules were imaged with a digital camera. Care was taken to avoid applying mechanical stress, and consequently to avoid displacing the micropipette tip from its position in the anterior chamber. Lengths were measured by IMAGE J (National Institutes of Health) and the pupil diameters were calibrated to the ruler.
# Pupillary diameter was measured before and 10 min after topical addition of […] containing 40 mM ([…]) of the miotic carbachol to both eyes of the mouse. One eye was not punctured; the other eye was impaled with the SNMS micropipette. Either the right or left eye of each mouse was chosen randomly for impalement. At so low a topical concentration and in the absence of a micropipette, exposure to carbachol for 10 min had no significant effect on pupillary size. The baseline diameter was 1.80±0.11, and was insignificantly changed by carbachol application, increasing by 0.12±0.17 mm (n=6, P>0.4).
compound,measurement,setting,value
"CCOC(=O)c1c(CC)c(C(=O)SCC)c(CC)[n+](C)c1-c1ccccc1.[I-] [MRS-1649, 2,4-diethyl-1-methyl-3-(ethylsulfanylcarbonyl)-5-ethyloxycarbonyl-6-phenylpyridium iodide]",effect on IOP in the mouse (in words),"mouse IOP [1]; tested by the inventors, technique not given",found to lower IOP in the mouse
CNC(=O)[C@H]1O[C@@H](n2cnc3c(NCc4cccc(I)c4)nc(Cl)nc32)[C@H](O)[C@@H]1O [Cl-IB-MECA],shrinkage of HCE cells,"[2]; in the presence of gramicidin, concentration not given",produced shrinkage of HCE cells
same,increase in IOP over baseline,"mouse IOP [1]; SNMS, after 10 min, adenosine 10 mM, Cl-IB-MECA 200 nM droplet",10.0±2.9 mmHg
same,Δ(IOP) Servo-Null,"mouse IOP [1]; topical droplet 200 nM (1% DMSO), endpoint 10 min",+10.0 ± 2.9 mm Hg
same,effect on mouse IOP measured non-invasively (in words),"mouse IOP [3]; pneumotonometry, topical, MRS-3833 at 200 nM",produced no significant increase in IOP
same,Δ(IOP) Pneumotonometer,mouse IOP [3],+0.7 ± 1.4 mm Hg
O=C1NCCC12O[C@@H](n1cnc3c(NCc4cccc(I)c4)ncnc31)[C@H](O)[C@@H]2O (stereo partly drawn) [MRS-1292],"time of maximum reduction in IOP, mean",mouse IOP [4]; 25 μM,15 ± 1 min
same,maximum reduction in IOP,mouse IOP [4]; droplets containing 25 μM,4.4±0.8 mm Hg
same,time constant (τ) of the adenosine-triggered shrinkage in the presence of MRS-1292,cultured human NPE cells; 10 μM adenosine plus MRS-1292,11.7 ± 2.6 min
same,Δv∞ steady-state shrinkage,"cultured human NPE cells; 10 μM adenosine, 2 min pretreatment with MRS-1292, gramicidin, 60 min study",1.9±0.2%
"3-ethyl 5-benzyl-2-methyl-6-phenyl-4-styryl-1,4-(±)-dihydropyridine-3,5-dicarboxylate [MRS-1097]",Ki,human A2A receptors,4.77 µM
CCNC(=O)[C@H]1O[C@@H](n2cnc3c(N)nc(NCCc4ccc(CCC(=O)O)cc4)nc32)[C@H](O)[C@@H]1O [CGS-21680],effect of agonist on isosmotic volume of NPE cells,[2]; agonist 100 nM,exerted no effect; also recorded: no detectable effect
same,effect of agonist on isosmotic volume of NPE cells,[2]; agonist 3 μM,triggered isosmotic shrinkage; also recorded: did trigger isosmotic shrinkage
"OC[C@H]1O[C@@H](n2cnc3c(NC4CCCC4)ncnc32)[C@H](O)[C@@H]1O [CPA, N^6-cyclopentyladenosine]",effect of agonist on isosmotic volume of NPE cells,"[2]; 30 nM and 1 μM (data not shown, N=3)",no significant shrinkage
same,effect of agonist on isosmotic volume of NPE cells,[2]; agonist 100 nM,had little effect; also recorded: small slow effect of uncertain significance
same,effect of agonist on isosmotic volume of NPE cells,[2]; agonist 3 μM,none at all; also recorded: no significant shrinkage
CCC(=O)O[C@@H]1[C@H](OC(=O)CC)[C@@H](C(=O)NC)O[C@H]1n1cnc2c(NCc3cccc(I)c3)nc(Cl)nc21 [MRS-3823],Δ(IOP) Pneumotonometer,mouse IOP [3],+0.2 ± 0.8 mm Hg
C[N+](C)(C)CCOC(N)=O [carbachol],effect on pupil size,"pupil size; 4 mM droplet, with or without corneal impalement (n=2)",had no effect on pupil size
same,reduction of the pupil diameter,"pupil size; 40 mM droplet, 10 min, cornea impaled with micropipette",38%
same,contraction of the pupil diameter,"pupil size; 40 mM droplet, 10 min, cornea impaled, baseline 2.00±0.15 mm",0.76±0.09 mm
same,change (increase) of pupil diameter,"pupil size; 40 mM droplet, 10 min, eye not punctured, baseline 1.80±0.11",0.12±0.17 mm
